Entries after “also recorded” stand apart in the source; their conditions may differ. Structures can show the parent of a compound that is named as a salt.
Experiments:
Type in all cases: in vivo
β-adrenergic receptors [1] = assay: Action on the β-adrenergic receptors: inhibition of cardiac effects of stimulation of the right stellar ganglion in anaesthetised dogs; conditions: compound 5 mg/kg intravenous, average, dog
Experimental: It then seemed interesting, using compound No. 1, to seek the existence of an action on the β-adrenergic receptors in the manner outlined below:
(§1) A stimulating electrode was placed in position on the right stellar ganglion of dogs anaesthetised as described above and for which there were recorded:
(§2) a. The arterial pressure,
(§3) b. Ventricular inotropism (the amplitude of contraction of the right ventricle), and
(§4) c. The rate of heart-beat.
(§5) The chest of the animals were not open and they were breathing freely.
The β-adrenergic receptors, both cardiac and vascular, were stimulated by electrical stimulation of the right stellar ganglion or by intravenous injection with isoprenaline (5 μg/kg). The measurements were taken both before and after administration of compound No. 1 by the intravenous route in a dose of 5 mg/kg bodyweight.
The following Table III gives the average percentage inhibition of the cardiovascular effects of isoprenaline and of the cardiac effects of the stimulation of the right stellar ganglion.

[2] = Cardiovascular activity on the chloralose-anaesthetised, artificially respirated dog (coronary sinus output, Pv O2, contraction amplitude, arterial pressure, rate of heart-beat); conditions: for AMPLITUDE OF VENTRICULAR CONTRACTION / ARTERIAL PRESSURE / CORONARY OUTPUT / RATE OF HEART-BEAT / SINUSAL Pv O2: maximum percentage variation relative to pre-treatment values
Experimental: The pharmacological activity of the compounds of the invention in the cardiovascular field was determined on the dog in the manner described below:
An incision is made in the right-hand chest wall of an animal, which has been anaesthetised with chloralose and given artificial respiration, to enable the blood from the venus sinus to be drawn off and the apparatus required to record the following parameters to be inserted in position:
a. Output of the coronary sinus;
b. Pv O2 of the blood from the coronary sinus; and
c. Amplitude of the contractions of the right ventricule.
At the same there were also measured:
d. Arterial pressure in a main carotid artery: and
e. The rate of heart-beat determined cardiotachometrically.
Table II which follows records the determinations made of the various parameters, the results being expressed as a maximum percentage variation relative to the pre-treatment values.

β-adrenergic receptors [3] = assay: Action on the β-adrenergic receptors: inhibition of cardiovascular effects of isoprenaline in anaesthetised dogs; conditions: dog, compound 5 mg/kg intravenous
Experimental: as §1, §2, §3, §4, §5
The β-adrenergic receptors, both cardiac and vascular, were stimulated by electrical stimulation of the right stellar ganglion or by intravenous injection with isoprenaline (5 μg/kg).

[4] = isoprenaline 5 ug/kg intravenous, average

CC(C)COCC(CN1CCCC1)N(Cc1ccccc1)c1ccccc1 (centres unmarked) [Compound 1, 1-(3-isobutoxy-2-(phenylbenzyl)-amino)-propyl-pyrrolidino-hydrochloride]
PERCENTAGE INHIBITION OF Positive inotropic effect (β-adrenergic receptors [1]): -21.3%
PERCENTAGE INHIBITION OF Rate of Heart-beat (β-adrenergic receptors [1]): -30%
AMPLITUDE OF VENTRICULAR CONTRACTION ([2]; 2.5 mg/kg intravenous): -0.7%
ARTERIAL PRESSURE ([2]; 2.5 mg/kg intravenous): -39.8%
CORONARY OUTPUT ([2]; 2.5 mg/kg intravenous): +51.2%
RATE OF HEART-BEAT ([2]; 2.5 mg/kg intravenous): -28.6%
SINUSAL Pv O2 ([2]; 2.5 mg/kg intravenous): +119.2%
AMPLITUDE OF VENTRICULAR CONTRACTION ([2]; 5 mg/kg intravenous): -22.3%
ARTERIAL PRESSURE ([2]; 5 mg/kg intravenous): -40.2%
CORONARY OUTPUT ([2]; 5 mg/kg intravenous): +36.9%
RATE OF HEART-BEAT ([2]; 5 mg/kg intravenous): -31.8%
SINUSAL Pv O2 ([2]; 5 mg/kg intravenous): +120.8%
oxygen content of the venous cardiac blood (in words) ([2]; intravenous): very considerable increase in the oxygen content of the venous cardiac blood
effect on stimulation of the β-adrenergic receptors (in words) (β-adrenergic receptors [3]; isoprenaline or right stellar ganglion stimulation, 5 mg/kg): partial inhibiting effect; also recorded: inhibiting effects with respect to the stimulation of the β-adrenergic receptors
PERCENTAGE INHIBITION OF Hypotension (β-adrenergic receptors [3]; [4]): -54%
PERCENTAGE INHIBITION OF Positive inotropic effect (β-adrenergic receptors [3]; [4]): -46.5%
PERCENTAGE INHIBITION OF Rate of Heart-beat (β-adrenergic receptors [3]; [4]): -32.7%

— patent publication US3962238A, “Ethers of n-propanol amine” (Centre Europeen de Recherches Mauvernay "CERM", priority 1972, dated 1976)
